Experimental data taken from ChEMBL document CHEMBL5136992, “Fascinating Transformation of SAM-Competitive Protein Methyltransferase Inhibitors from Nucleoside Analogues to Non-Nucleoside Analogues” (J Med Chem, 2022).

How the values were obtained:
[1] = target: T1, Protein arginine N-methyltransferase 7 (Homo sapiens, UniProt Q9NVM4); test: Inhibition of PRMT7 (unknown origin)
T1 sequence (Q9NVM4 whole entry): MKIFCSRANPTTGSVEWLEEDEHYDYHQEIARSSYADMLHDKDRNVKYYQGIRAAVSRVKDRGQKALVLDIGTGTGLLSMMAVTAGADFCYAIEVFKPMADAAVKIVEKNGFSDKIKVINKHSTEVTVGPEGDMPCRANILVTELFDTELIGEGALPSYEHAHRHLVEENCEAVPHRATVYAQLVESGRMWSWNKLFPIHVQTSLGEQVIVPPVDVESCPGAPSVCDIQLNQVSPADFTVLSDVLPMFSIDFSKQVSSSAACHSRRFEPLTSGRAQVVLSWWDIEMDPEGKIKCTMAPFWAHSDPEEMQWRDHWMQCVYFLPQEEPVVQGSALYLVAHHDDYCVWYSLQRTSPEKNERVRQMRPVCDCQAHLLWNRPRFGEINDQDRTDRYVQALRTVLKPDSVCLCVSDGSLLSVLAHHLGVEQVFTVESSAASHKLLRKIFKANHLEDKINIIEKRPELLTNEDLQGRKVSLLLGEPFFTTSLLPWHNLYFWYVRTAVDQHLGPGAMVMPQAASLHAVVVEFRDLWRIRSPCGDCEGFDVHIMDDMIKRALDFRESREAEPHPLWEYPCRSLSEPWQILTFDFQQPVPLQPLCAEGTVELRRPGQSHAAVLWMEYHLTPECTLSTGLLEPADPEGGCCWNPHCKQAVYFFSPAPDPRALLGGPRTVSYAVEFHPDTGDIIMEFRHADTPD

[2] = target: Protein arginine N-methyltransferase 5 (Homo sapiens, UniProt O14744); test: Binding affinity to PRMT5 (unknown origin) assessed as inhibition constant
[3] = target: T2, Histone-lysine N-methyltransferase SMYD3 (Homo sapiens, UniProt Q9H7B4); test: Inhibition of SMYD3 (unknown origin)
T2 sequence (Q9H7B4 whole entry): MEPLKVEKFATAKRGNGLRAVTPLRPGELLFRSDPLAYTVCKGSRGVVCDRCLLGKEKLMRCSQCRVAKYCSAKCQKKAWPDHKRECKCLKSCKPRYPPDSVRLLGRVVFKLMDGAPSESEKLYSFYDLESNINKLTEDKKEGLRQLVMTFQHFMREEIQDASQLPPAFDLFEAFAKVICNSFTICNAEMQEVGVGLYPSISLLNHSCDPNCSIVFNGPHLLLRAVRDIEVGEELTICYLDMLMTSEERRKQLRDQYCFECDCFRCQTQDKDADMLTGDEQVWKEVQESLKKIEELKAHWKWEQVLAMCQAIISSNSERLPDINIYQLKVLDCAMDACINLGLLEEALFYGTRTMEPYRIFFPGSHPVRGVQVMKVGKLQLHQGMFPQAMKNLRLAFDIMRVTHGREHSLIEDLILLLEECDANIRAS

[4] = Microsomal stability in rat liver microsomes assessed as remaining compound after 1 hr incubation; assay type: ADME, Microsome; conditions: read-out: Stability

Sequence of Protein arginine N-methyltransferase 5 (O14744 whole entry): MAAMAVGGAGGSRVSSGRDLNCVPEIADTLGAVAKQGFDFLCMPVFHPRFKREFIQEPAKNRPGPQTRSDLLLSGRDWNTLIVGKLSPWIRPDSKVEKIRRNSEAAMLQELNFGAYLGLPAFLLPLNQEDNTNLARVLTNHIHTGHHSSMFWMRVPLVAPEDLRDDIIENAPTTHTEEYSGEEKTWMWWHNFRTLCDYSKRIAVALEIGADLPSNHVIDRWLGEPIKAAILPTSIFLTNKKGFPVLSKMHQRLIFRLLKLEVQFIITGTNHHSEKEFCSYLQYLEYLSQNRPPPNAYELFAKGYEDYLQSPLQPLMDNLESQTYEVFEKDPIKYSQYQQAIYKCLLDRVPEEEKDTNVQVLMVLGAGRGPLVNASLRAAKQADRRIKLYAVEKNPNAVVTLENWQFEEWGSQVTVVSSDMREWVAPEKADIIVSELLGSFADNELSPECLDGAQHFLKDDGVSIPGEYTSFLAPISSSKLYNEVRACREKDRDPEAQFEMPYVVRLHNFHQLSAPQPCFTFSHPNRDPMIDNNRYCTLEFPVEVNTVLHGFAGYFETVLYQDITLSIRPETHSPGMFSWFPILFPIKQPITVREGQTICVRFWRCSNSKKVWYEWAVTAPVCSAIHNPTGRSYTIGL

Nc1ncnc2c1ncn2[C@@H]1O[C@H](CSCCCCNCc2cccc(-c3ccc(Cl)cc3)c2)[C@@H](O)[C@H]1O
IC50 [1]: < 2.5 nM

Nc1ncnc2c1ccn2[C@H]1O[C@@H]([C@H](O)c2ccc(Cl)c(F)c2)[C@H](O)[C@@H]1O
Ki [2]: 0.02 nM

CN(C)CCCN(CC[C@H](N)C(=O)O)C[C@@H]1O[C@H](n2cnc3c(N)ncnc32)[C@@H](O)[C@H]1O
IC50 [3]: 130 nM

COc1cccc(CCNC(=O)[C@H](CC[C@@H](CNCc2ccccc2)C[C@H]2O[C@@H](n3cnc4c(N)ncnc43)[C@H](O)[C@@H]2O)NC(=O)CC(C)(C)C2=C(C)C(=O)C(C)=C(C)C2=O)c1
remaining at 1 h [4]: 24%
